Literature values as cited in US20130079342A1, “HETEROCYCLIC COMPOUNDS AND THEIR USES” (priority 2011, published 2013).

Assays:
[1] = system: systemic lupus erythematosis model; settings: in vivo
[2] = system: rheumatoid arthritis model; settings: in vivo
p110δ = target: T1, p110δ (Homo sapiens, UniProt O00329)
T1 sequence (O00329 1-1044): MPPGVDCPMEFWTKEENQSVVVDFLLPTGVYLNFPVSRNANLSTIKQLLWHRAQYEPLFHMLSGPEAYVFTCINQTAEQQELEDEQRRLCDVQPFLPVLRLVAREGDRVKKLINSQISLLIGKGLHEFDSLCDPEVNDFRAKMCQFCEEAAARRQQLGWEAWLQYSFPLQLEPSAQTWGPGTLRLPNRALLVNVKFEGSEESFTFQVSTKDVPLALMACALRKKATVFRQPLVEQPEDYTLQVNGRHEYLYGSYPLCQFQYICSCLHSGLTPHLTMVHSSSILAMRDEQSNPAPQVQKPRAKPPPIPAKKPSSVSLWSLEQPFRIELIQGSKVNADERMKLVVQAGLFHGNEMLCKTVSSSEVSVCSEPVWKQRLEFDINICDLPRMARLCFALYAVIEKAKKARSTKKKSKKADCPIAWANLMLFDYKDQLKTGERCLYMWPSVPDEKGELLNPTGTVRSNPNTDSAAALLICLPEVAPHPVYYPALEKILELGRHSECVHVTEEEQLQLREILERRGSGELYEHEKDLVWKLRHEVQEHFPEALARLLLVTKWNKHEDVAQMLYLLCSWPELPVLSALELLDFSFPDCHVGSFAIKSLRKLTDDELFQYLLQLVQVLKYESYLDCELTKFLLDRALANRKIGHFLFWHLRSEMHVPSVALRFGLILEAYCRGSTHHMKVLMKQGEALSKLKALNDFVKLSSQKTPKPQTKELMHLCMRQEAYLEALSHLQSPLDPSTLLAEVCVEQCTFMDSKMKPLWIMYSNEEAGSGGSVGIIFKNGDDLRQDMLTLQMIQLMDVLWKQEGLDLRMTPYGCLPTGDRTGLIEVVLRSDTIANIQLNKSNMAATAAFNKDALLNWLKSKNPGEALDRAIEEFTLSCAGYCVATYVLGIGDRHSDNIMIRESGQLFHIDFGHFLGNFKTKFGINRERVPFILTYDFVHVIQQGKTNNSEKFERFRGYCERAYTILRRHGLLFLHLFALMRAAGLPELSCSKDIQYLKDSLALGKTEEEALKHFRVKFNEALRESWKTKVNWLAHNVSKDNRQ

[3] = system: ovalbumin-induced airway inflammation

SMILES	onset of disease in a model of systemic lupus erythematosis [1]	efficacy in a mouse model of rheumatoid arthritis [2]	inhibition of p110δ (p110δ)	inflammation and disease in a murine model of asthma [3]	activity against any protein kinases tested (protein kinases)
O=C1NC(=O)/C(=C\c2ccc3nccnc3c2)S1 [AS 605240]	delay onset of disease	efficacious			
Cc1ccccc1-n1c(Cn2cnc3c(N)ncnc32)nc2cccc(C)c2c1=O [IC87114]			high nanomolar range (triple digit)	significantly ameliorate inflammation and disease	no activity
